This note sets out measurements from publication PMC5441137, “Positively Selected Sites at HCMV gB Furin Processing Region and Their Effects in Cleavage Efficiency” (Frontiers in Microbiology, 2017).

In assay [1] the target is T1, recombinant human furin (Homo sapiens, UniProt P09958).
T1 construct: made in house
Put plainly: Analysis of furin-processed FRET substrates by LC-MS / HPLC / Maldi-TOF. The assay is classed as biochemical. The conditions noted are these: FRET peptide 5 μM, spectrofluorimeter and Maldi-TOF after 2 h of incubation with furin. The text has this:
In order to see if the mutations have an influence in cleavage, peptides containing the original reference sequences and their derivative containing positive selected mutations, were synthesized and tested against recombinant human furin. All substrates were cleaved after the double basic residues RR or KR as analyzed by Liquid Chromatography mass spectrometry (LC-MS) (Supplementary Figures S1–S3). The kcat/km ratio relates to the catalytic efficiency, meaning how fast in […] the enzyme reacts with the substrate once it encounters it. As a control, a peptide which contains a mutation previously shown to interfere with furin cleavage ([Strive et al., 2002]) was tested and as expected no cleavage was observed (Table 2 and Supplementary Figure S3).
Supplementary file Image_1.TIF: FIGURE S1 HPLC of furin-processed FRET substrates. […] Substrate and products were followed by fluorescence (Abz, ex320 nm; em420 nm) quenching (Eddnp, uv = 365 nm) indicating single cleavage site for all tested sequences. (A) gB3_22. (B) gB_20. (C) gB3_26 (D) gB2_18. (E) gB2_13. (F) gB2_19. Click here for additional data file.
Supplementary file Image_2.TIF: FIGURE S2 Mass spectra of furin-processed substrates. […] (A) gB3_22 substrate and products (1549.3, 678.7, and 888.7 Da). (B) gB2_13 (1634.4, 706.7, and 945.7 Da). (C) gB_20 (1604.3, 706.7, and 915.6 Da). […]

Assay [2] deals with T1, recombinant human furin. Put plainly: FRET peptide enzymatic kinetics assay of cleavage by furin. The assay is classed as biochemical. The note with it: for Km / kcat: FRET peptide as furin substrate, 10 mM MES, 1 mM CaCl2, pH 7.0, 37°C, fluorescence λex 320 nm/λem 420 nm, non-linear Michaelis-Menten fit (Grafit). As to the method: Recombinant human furin was expressed and purified as previously described ([Kacprzak et al., 2004]). The enzyme concentration was determined by active site titration using the inhibitor decanoyl-RVKR-CMK inhibitor in 10 mM MES buffer, 1 mM CaCl2, pH 7.0 and the substrate Abz-GIRRKRSVSHQ-EDDnp.
Seven synthetic peptides were obtained by solid-phase strategy, as previously described ([Izidoro et al., 2010]) using the Fmoc-procedure in an automated multiple solid-phase peptide synthesizer (PSSM 8 system, Shimadzu, Japan) ([Hirata et al., 1995]; [Korkmaz et al., 2008]). Peptides were prepared in dimethylformamide and stock concentrations measured spectrophotometrically at 365 nm (e = 17,300 M^-1.cm^-1). The quantum yields of the FRET peptides and the products of their hydrolysis were unchanged in all tested conditions.
The FRET peptides were assayed in 10 mM MES, 1 mM CaCl2, pH 7.0, using a F-2500 spectrofluorimeter (Hitachi, Tokyo, Japan), at 37°C ([Izidoro et al., 2010]), as previously described. Fluorescence changes were monitored continuously at λex = 320 nm and λem = 420 nm. The enzyme concentrations for initial rate determinations were chosen at a level intended to hydrolyze less than 5% of the amount of added substrate over the time course of data collection.
Three kinetic parameters from the Michaelis-Menten model were analyzed, representing enzyme-substrate (km), the catalysis constant (kcat) and the kcat/km ratio. The kinetic parameters km and kcat were calculated by non-linear regression using Grafit software (Erithacus Software, Horley, Surrey, UK). km, kcat, and standard errors (less than 10%) were calculated using Grafit software (v.5.0.13, Erithacus Software, Horley, Surrey, UK) with a non-linear least squares Michaelis-Menten fit associated with a matrix invertion fitting routine to refine kcat, km and allowing estimation of the errors. Standard deviations greater than 10% are due to low values obtained.

Setting [3] is: versus genotype 3 reference peptide (gB3_22).

T1 sequence (P09958 108-794): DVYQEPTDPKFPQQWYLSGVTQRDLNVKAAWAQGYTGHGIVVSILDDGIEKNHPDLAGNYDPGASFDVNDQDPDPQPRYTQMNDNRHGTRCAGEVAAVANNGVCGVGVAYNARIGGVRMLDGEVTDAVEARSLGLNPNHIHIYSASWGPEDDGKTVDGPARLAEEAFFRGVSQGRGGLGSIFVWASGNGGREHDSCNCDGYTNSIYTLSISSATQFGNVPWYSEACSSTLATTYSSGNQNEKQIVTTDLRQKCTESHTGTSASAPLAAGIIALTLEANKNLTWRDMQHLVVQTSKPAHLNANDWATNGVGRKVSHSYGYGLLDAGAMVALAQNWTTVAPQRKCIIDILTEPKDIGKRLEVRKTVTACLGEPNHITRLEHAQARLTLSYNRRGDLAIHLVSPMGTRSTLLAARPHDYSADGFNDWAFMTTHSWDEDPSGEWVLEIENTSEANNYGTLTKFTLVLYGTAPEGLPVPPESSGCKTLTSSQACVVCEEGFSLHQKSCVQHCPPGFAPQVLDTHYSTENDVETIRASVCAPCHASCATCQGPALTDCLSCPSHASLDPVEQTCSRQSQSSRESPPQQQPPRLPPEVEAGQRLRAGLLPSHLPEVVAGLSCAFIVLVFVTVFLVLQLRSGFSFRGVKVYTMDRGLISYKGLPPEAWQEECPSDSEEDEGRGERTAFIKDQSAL

Consider ATRASTSDNNT, for which the “processing by furin (cleavage observed or not)” value in assay [1] is “not processed by furin”.

In the case of “RTKR↓DTGNTTT [gB3_26, FRET peptide of gB genotype 3 with the positively selected mutation S461D]”, in assay [2], the Km was 0.43 µM and the kcat was found to be 1.89 s⁻¹. Besides, in assay [2] (setting [3]), the “decrease in kcat/km ratio compared to the reference sequence” value was “threefold” and the “increase in the km compared to the reference sequence” value was determined as 20 times.

With RTKR↓STGNTTT [gB3_22], in assay [2], the Km turned out to be 0.02 µM and the kcat was 0.25 s⁻¹.

“RTRR↓SASDNNT [gB2_20, FRET peptide of gB genotype 2 with the positively selected mutation T462A]”: in assay [2], the Km was 0.69 µM and the kcat is 4.06 s⁻¹.

On to “RTRR↓SMSDNNT [gB2_18, FRET peptide of gB genotype 2 with the positively selected mutation T462M]”, for which, in assay [2], the Km came out at 1.65 µM and the kcat stood at 3.01 s⁻¹.

As to “RTRR↓SRSDNNT [gB2_19, FRET peptide of gB genotype 2 with the positively selected mutation T462R]”, in assay [2], the Km was 0.23 µM and the kcat was determined as 5.06 s⁻¹. Besides, the “increase of the kcat/km ratio compared to the reference sequence” value in assay [2] (versus genotype 2 reference sequence (gB2_13)) was found to be 31 fold.

As for RTRR↓STSDNNT [gB2_13], in assay [2], the Km worked out at 3.19 µM and the kcat stood at 2.24 s⁻¹.
